From patent publication US11883404B2, “Preparation and composition for treatment of malignant tumors” (TAIHO PHARMACEUTICAL CO., LTD., priority 2016, dated 2024)
Counter-ions that a name gives are not always drawn. Like-named read-outs stand apart in the source and are kept apart here.

How the values were obtained:
[1] = tested on: human endometrial cancer line AN3CA; assay: Apoptosis induction, CellEvent Caspase-3/7 Green Detection, Compound 1 and Compound 2 (Example 14); assay type: cell-based; details: Compound 1 100 nM, Compound 2 100 nM, 24 hours
Method: (§1) The presence or absence of induction of apoptosis by concomitant use was observed using CellEvent™ Caspase-3/7 Green Detection Reagent (Invitrogen Corp.). […] The concentration of Compound 2 was set to 100 nM. These medicines used alone (DMSO was added as a control) or concomitantly were comparatively studied. […] Apoptosis was detected by adding 6 μL of CellEvent™ Caspase-3/7 Green Detection Reagent (Invitrogen Corp.) solution per well to the cells, incubating the cells at 37° C. for 30 minutes, and then measuring cell images in the bright field and fluorescence signals, under a fluorescence microscope. The observed fluorescence signals indicate the induction of Caspase 3/7, and the amplitude of the signals represents the presence or absence of induction of apoptosis-like cell death.

[2] = tested on: human small cell lung cancer cell line DMS 114; assay: Cell survival rate assay (CellTiter-Glo 2.0), IC50 and combination index of Compound 1 and Compound 2 (Example 15); assay type: cell-based; details: each medicine alone, 72 hours
Method: A human small cell lung cancer cell line DMS 114 was cultured using a Waymouth's medium containing 10% fetal bovine serum. The cells were maintained at 37° C. under 5% CO2 and subcultured at a ratio of 1:5 to 1:20 by 1 to 2 passages per week.
Cell survival rate was measured using CellTiter-Glo 2.0 (produced by Promega Corp.). The cells were collected by an ordinary method, then suspended in a Waymouth's medium containing 10% fetal bovine serum, and seeded in a 96-well plate. The number of cells seeded per well was set to 2000 cells/50 μL. […] In addition to groups of each medicine alone, groups of both the medicines simultaneously added were prepared in parallel. […] Cell survival rates were calculated by adding 50 μL of CellTiter-Glo 2.0 solution to each well, incubating the cells at room temperature for 15 minutes, and then measuring the chemiluminescence intensity of each well using a plate reader (FlexStation 3). The cell survival rates in medicine addition were calculated as a ratio vs. the control group (100%) according to the following equation: Cell survival rate (%)=(Chemiluminescence intensity at the time of medicine addition)/(Chemiluminescence intensity of the control group)×100
Also, Fa (fraction of affect) values were calculated by subtracting a 1/100 value of the cell survival rate from 1. […]

[3] = tested on: human endometrial cancer line AN3CA; assay: Antitumor effect of Compound 1 and Compound 2 on subcutaneously implanted AN3CA tumor in nude mouse (Example 16); assay type: in vivo, BALB/cAJcl-nu/nu mice; details: alone, Day 15
Method: The day at which the grouping was carried out was defined as Day 0. TV(mm^3)=(Major axis×Minor axis^2)/2(units for the major axis and the minor axis were mm).
The dose of Compound 2 was set in consideration of well tolerated dose for nude mice, etc.
(§2) RTV was calculated according to the expression given below from TV values on the day of measurement and on the day of grouping. […] RTV=(TV on the day of measurement)/(TV on the day of grouping) T/C (%)=(Average RTV in each medicine administration group on the day of assessment)/(Average RTV in the control group on the day of assessment)×100

[4] = tested on: Human lung cancer line HCC4006; details: 100 ng/mL FGF7, 72 hours
Method: (§3) Cell survival rates were measured using CellTiter-Glo. The cells were recovered by an ordinary method, suspended in the above medium containing 10% fetal bovine serum, and seeded in a 96-well plate. The number of cells seeded per well was set to 2000 cells/70 μL. […] In order to study effects on the activated FGF/FGFR pathway in the cells, a ligand FGF2 or FGF7 was added to the cells and compared with non-addition. […] DMSO was added to a control well, and 10 ng/mL FGF2 or 100 ng/mL FGF7 was added to the medium.
(§4) The cells were incubated at 37° C. for 72 hours under 5% CO2. Then, 100 μL of CellTiter-Glo solution was added to each well, and the cells were incubated at room temperature for 10 minutes, followed by the measurement of chemiluminescence intensity using a plate reader (ARVO). Growth inhibitory effects relative to the vehicle group were calculated from the obtained data.

[5] = tested on: Human lung cancer line NCI-H1650; details: 100 ng/mL FGF7, 72 hours
Method: as §3, §4

[6] = tested on: human gastric cancer line SNU-16; assay: Antitumor effect of Compound 1 and paclitaxel on subcutaneously implanted SNU-16 tumor in nude mouse (Example 2); details: for T/C (%): Day 15
[7] = tested on: human endometrial cancer line AN3CA; details: alone, Day 15
Method: An engrafted tumor was removed from the mice, chopped into fragments of 2 mm square, and then subcutaneously implanted to 6-week-old female BALB/cAJcl-nu/nu mice.
Everolimus was orally administered each day at 2 mg/kg/day for 14 days.

[8] = tested on: human endometrial cancer line AN3CA; assay: Antitumor effect of Compound 1 and gemcitabine on subcutaneously implanted AN3CA tumor in nude mouse (Example 4); assay type: in vivo, BALB/cAJcl-nu/nu mice; details: Day 15
Method: Gemcitabine was administered at 100 mg/kg/day from the tail vein at Day 1 and Day 8.

[9] = tested on: human endometrial cancer line AN3CA; details: for T/C (%): Day 11
[10] = tested on: human gastric cancer line SNU-16; assay type: in vivo; details: alone
Method: The day at which the grouping was carried out was defined as Day 0. TV (mm^3)=(Major axis×Minor axis^2)/2(units for the major axis and the minor axis were mm).
as §2

[11] = tested on: human endometrial cancer line AN3CA; assay: Apoptosis induction, CellEvent Caspase-3/7 Green Detection, Compound 1 and MK2206 (Example 9); assay type: cell-based; details: Compound 1 10 nM, MK2206 dihydrochloride 300 nM (free form), 24 hours
Method: as §1, with “MK2206 dihydrochloride” for “Compound 2”, “300 nM (in terms of a free form).” for “100 nM.”, “1” for “6”

phosphorylated AKT = assay: Western blot, intracellular phosphorylation of AKT in AN3CA (Example 11); assay type: cell-based, human; details: Compound 1 10 and 100 nM, MK2206 dihydrochloride 5 μM
Method: The intracellular phosphorylation levels of ERK, AKT, mTOR and S6 were detected by Western blot method. […] Likewise, MK2206 dihydrochloride was added at a final concentration of 5 μM (in terms of a free form), and everolimus was added at a final concentration of 3 nM. Each medicine alone and each combination were studied. DMSO was added as a control at a final concentration of 0.2%. […] The amounts of phosphorylated AKT, phosphorylated ERK, phosphorylated mTOR, phosphorylated S6 and GAPDH were detected using Western blot according to an ordinary method.

phosphorylated mTOR = assay: Western blot, intracellular phosphorylation of mTOR in AN3CA (Example 11); assay type: cell-based, human; details: everolimus 3 nM alone
Method: The intracellular phosphorylation levels of ERK, AKT, mTOR and S6 were detected by Western blot method. […] Likewise, MK2206 dihydrochloride was added at a final concentration of 5 μM (in terms of a free form), and everolimus was added at a final concentration of 3 nM. Each medicine alone and each combination were studied. DMSO was added as a control at a final concentration of 0.2%.
Then, cell lysates were prepared using RIPA Buffer [composition: 50 mM Tris-HCl (pH 8.0), 150 mM NaCl, 5 mM EDTA, 1% (w/w) Nonidet P-40, 0.1% (w/w) sodium deoxycholate, and 0.1% (w/w) SDS]. The amounts of phosphorylated AKT, phosphorylated ERK, phosphorylated mTOR, phosphorylated S6 and GAPDH were detected using Western blot according to an ordinary method.

[12] = Compound 1 15 mg/kg/day orally once a day for 14 days, alone

SMILES: CC1(O)CC(N)(c2ccc(-c3nc4n(c3-c3ccccc3)COc3ccncc3-4)cc2)C1 (stereo not drawn) [Compound 2, trans-3-amino-1-methyl-3-(4-(3-phenyl-5H-imidazo[1,2-c]pyrido[3,4-e][1,3]oxazin-2-yl)phenyl)cyclobutanol]
- induction of cell death (Caspase 3/7 fluorescence signals) [1]: hardly found
- IC50 [2]: 4.86 µM
- T/C (%) ([3]; Compound 2 4 mg/kg/day orally once a day for 14 days): 58.6%
- T/C (%) ([3]; Compound 2 8 mg/kg/day orally once a day for 14 days): 55.4%

SMILES: COc1cc2ncnc(Nc3ccc(F)c(Cl)c3)c2cc1OCCCN1CCOCC1 [gefitinib]
- drug effect of gefitinib on addition of the FGFR ligand FGF7 [4]: attenuated
- drug effect of gefitinib on addition of the FGFR ligand FGF7 [5]: attenuated

SMILES: C=CC(=O)N1CC[C@H](n2nc(C#Cc3cc(OC)cc(OC)c3)c3c(N)ncnc32)C1 [Compound 1, (S)-1-(3-(4-Amino-3-((3,5-dimethoxyphenyl)ethynyl)-1H-pyrazolo[3,4-d]pyrimidin-1-yl)pyrrolidin-1-yl)prop-2-en-1-one]
- T/C (%) ([6]; Compound 1 5 mg/kg/day orally once a day for 14 days, alone): 83.6%
- T/C (%) [6, 12]: 69.0%
- T/C (%) ([7]; Compound 1 15 mg/kg/day orally each day for 14 days): 33.3%
- T/C (%) ([7]; Compound 1 50 mg/kg/day orally each day for 14 days): 12.6%
- T/C (%) ([8]; Compound 1 15 mg/kg/day orally each day for 14 days, alone): 42.1%
- T/C (%) ([3]; Compound 1 15 mg/kg/day orally once a day for 14 days): 22.1%
- T/C (%) [9, 12]: 46.0%
- T/C (%) ([10]; Compound 1 5 mg/kg/day orally once a day for 14 days, day of assessment (Day 15)): 83.6%
- T/C (%) ([10]; Compound 1 15 mg/kg/day orally once a day for 14 days, Day 15): 69.0%

SMILES: N.N.[Cl][Pt][Cl] [cisplatin]
- T/C (%) ([9]; cisplatin 7 mg/kg/day tail vein at Day 1, alone): 53.0%
- body weight change of the mice ([9]; mouse, in vivo): transient decrease in body weight

SMILES: NC1(c2ccc(-c3nc4ccn5c(=O)[nH]nc5c4cc3-c3ccccc3)cc2)CCC1 [MK2206 dihydrochloride, 8-[4-(1-aminocyclobutyl)phenyl]-9-phenyl-1,2,4-triazolo[3,4-f][1,6]naphthyridin-3(2H)-one]
- induction of cell death (Caspase 3/7 fluorescence signals) [11]: hardly found
- AKT phosphorylation (phosphorylated AKT): inhibited

SMILES: CO[C@H]1C[C@@H]2CC[C@@H](C)[C@@](O)(O2)C(=O)C(=O)N2CCCC[C@H]2C(=O)O[C@H]([C@H](C)C[C@@H]2CC[C@@H](OCCO)[C@H](OC)C2)CC(=O)[C@H](C)/C=C(\C)[C@@H](O)[C@@H](OC)C(=O)[C@H](C)C[C@H](C)/C=C/C=C/C=C/1C [everolimus, reference compound]
- T/C (%) ([7]; everolimus 2 mg/kg/day orally each day for 14 days): 27.1%
- mTOR phosphorylation (phosphorylated mTOR): inhibited

SMILES: Nc1ccn([C@@H]2O[C@H](CO)[C@@H](O)C2(F)F)c(=O)n1 [gemcitabine, reference compound]
- T/C (%) ([8]; gemcitabine 100 mg/kg/day tail vein at Day 1 and Day 8, alone): 75.5%

SMILES: CC(=O)O[C@H]1C(=O)[C@@]2(C)[C@H]([C@H](OC(=O)c3ccccc3)[C@]3(O)C[C@H](OC(=O)[C@H](O)[C@@H](NC(=O)c4ccccc4)c4ccccc4)C(C)=C1C3(C)C)[C@]1(OC(C)=O)CO[C@@H]1C[C@@H]2O [paclitaxel, reference compound]
- body weight change of the mice ([6]; paclitaxel 60 mg/kg, concomitant use group vs each medicine group): transient decrease in body weight
- T/C (%) ([6]; paclitaxel single dose 60 mg/kg/day tail vein at Day 1, alone): 12.9%
